# Reference: paper PMC8861615, “Searching for plant-derived antivirals against dengue virus and Zika virus” (Virology Journal, 2022)
# “Also recorded” adds a separate entry of the source. Like-named read-outs stand apart in the source and are kept apart here.
# Tests used:
# DENV-2 [1] = assay: Anti-DENV-2 activity by viral CPE reduction and MTT method in BHK-21 cells; format: cell-based, Dengue virus serotype 2
# Method: (§1) Plant extracts were screened for their cytotoxic and anti-ZIKV and anti-DENV activities in Vero cells and BHK-21, respectively, in 96-well culture plates by observing the reduction of the viral cytopathic effect (CPE) and then measured by the MTT method. The crude extracts were dissolved in 4% DMSO aqueous solution, and their concentration was normalized to 50 µg/ml with Eagle's minimum essential medium (MEM) supplemented with 2% fetal bovine serum (FBS). Briefly, 8 × 10^3 of BHK-21 cells or 1 × 10^4 of Vero cells per well were seeded in a 96-well plate and incubated for 24 h at 37 °C and 5% CO2 atmosphere. Extract solution and virus suspension, at a multiplicity of infection (m.o.i.) of 2, for both viruses, were simultaneously added on 70% confluent monolayers. Each extract was tested in duplicate. Controls of untreated infected and untreated uninfected cells incubated with or without DMSO were included. Interferon-α 2B, in concentrations of 500 and 1000 IU/mL, was used as a positive antiviral control in all antiviral assays. […] Briefly, the supernatants were removed, and 30 µl of a stock solution of MTT (2 mg/ml) dissolved in phosphate-buffered saline were added to each well. After 90 min of incubation at 37 °C, 130 µl of DMSO were added to each well, and plates were homogenized for 5 min at 500 rpm. The absorbance values of each reaction were measured in an ELISA reader (Spectra Max, Molecular Devices, USA) at λ540 nm. […] Cytotoxicity (CC50) and anti-ZIKV/DENV-2 (CE50) experiments were performed in duplicate and repeated at least three times.
# (§2) Viral CPE and cell viability were observed by optic microscopy and measured by the MTT method as previously described. […] The experiments were performed in duplicate and repeated at least three times.
# (§3) Bioassay data were normalized to untreated uninfected cells and the EC50 and CC50 values were obtained using GraphPad Prism 5 based on nonlinear logistic regression of the experimental dose–response curves. […] The CC50 and EC50 values ratio was used as a selectivity index (SI).
# ZIKV [2] = assay: microbe, parasite or virus in culture; format: cell-based, Zika virus; settings: for ZIKV EC50 (µM) / EC50: compounds, Vero cells, MTT
# Method: as §1, §2, §3
# BHK-21 cells = assay: Cytotoxicity (CC50) by MTT method in BHK-21 cells; format: cell-based, Hamster; settings: for CC50: compounds, MTT
# Method: (§4) Compounds and selected extracts that tested positive for anti-ZIKV or anti-DENV-2 activity at the screening step had their CC50 determined by using an 8‐point dose range in 96 well microplate containing Vero or BHK-21 cell monolayers. Cell viability was observed by optic microscopy and measured by the MTT method as described. The experiments were performed in duplicate and repeated at least three times.
# (§5) Bioassay data were normalized to untreated uninfected cells and the EC50 and CC50 values were obtained using GraphPad Prism 5 based on nonlinear logistic regression of the experimental dose–response curves. The values correspond to three independent assays' average and standard deviation with at least 8 sample distinct concentrations. The CC50 and EC50 values ratio was used as a selectivity index (SI). The extracts and compounds with higher SI values were considered the most promising and selected for further investigation if available in sufficient quantities.
# Vero cells = assay: Cytotoxicity (CC50) by MTT method in Vero cells; format: cell-based; settings: for CC50: compounds, MTT
# Method: as §4, §5
# DENV-2 [3] = assay: Virucidal activity by plaque reduction assay, DENV in BHK-21 cells; format: cell-based, Dengue virus serotype 2; settings: compounds
# Method: (§6) The virucidal activity of extracts and compounds against ZIKV and DENV was assessed by plaque reduction assay in Vero and BHK-21 cells, respectively, in 24 well microplates. […] Virus suspension without the extract/compound was included as a control. Surviving infectious viral particles were assessed by viral plaque formation assay. Briefly, the infected monolayers were overlaid with 1.5% carboxymethyl cellulose containing MEM with 2% FBS and incubated for five days. After that, cell monolayers were fixed with 10% formaldehyde and stained with 1% crystal violet 1% in an 30% ethanol aqueous solution.
# ZIKV [4] = assay: Virucidal activity by plaque reduction assay, ZIKV in Vero cells; format: cell-based, Zika virus; settings: compounds
# Method: as §6
# [5] = Cytotoxicity (CC50) by MTT method in BHK-21 cells; format: cell-based, Hamster; settings: hamster, compounds, MTT
# Method: as §4, §5
# [6] = Cytotoxicity (CC50) by MTT method in Vero cells; format: cell-based; settings: African green monkey, compounds, MTT
# Method: as §4, §5
# [7] = Dengue virus, DENV2, BHK-21, read-out: DENV-2 EC50 (µM)
# [8] = compounds, BHK-21 cells, MTT, read-out: DENV-2 EC50
compound,measurement,setting,value
"CC(=O)O[C@H]1[C@H]2c3cc4c(cc3CN3CCC(=C[C@@H]1OC(C)=O)[C@H]23)OCO4 [1,2-diacetyl-lycorine]",DENV-2 EC50 (µM),"DENV-2 [1]; compounds, BHK-21 cells, MTT",no antiviral activity; also recorded: Inactive
same,ZIKV EC50 (µM),ZIKV [2],Inactive
same,CC50,BHK-21 cells,> 100 µM
same,CC50,Vero cells,> 100 µM
same,DENV-2 Virucidal activity,DENV-2 [3],No
same,ZIKV Virucidal activity,ZIKV [4],No
CC(=O)O[C@H]1[C@H]2c3cc4c(cc3CN3CCC(=C[C@@H]1O)[C@H]23)OCO4 [1-acetyl-lycorine],DENV-2 EC50 (µM),"DENV-2 [1]; compounds, BHK-21 cells, MTT",no antiviral activity; also recorded: Inactive
same,EC50,ZIKV [2],19.3 µM
same,CC50,BHK-21 cells,7.8 µM
same,CC50,Vero cells,19.8 µM
same,DENV-2 Virucidal activity,DENV-2 [3],No
same,ZIKV Virucidal activity,ZIKV [4],No
O[C@H]1[C@H]2c3cc4c(cc3CN3CCC(=C[C@@H]1O)[C@H]23)OCO4 [Lycorine],EC50,DENV-2 [1]; [7],0.5 µM
same,EC50,ZIKV [2]; Zika virus,0.9 µM
same,CC50,[5],4.3 µM
same,CC50,[6],3.4 µM
same,DENV-2 Virucidal activity,DENV-2 [3],No
same,ZIKV Virucidal activity,ZIKV [4],No
"O=C1NC2C(=C[C@H](O)[C@@H](O)[C@H]2OC2OCC(O)C(O)C2O)c2cc3c(c(O)c21)OCO3 (stereo partly drawn) [Narciclasine-4-O-β-D-xylopyranoside, narciclasine-4-O-β-D-xylopyranoside]",EC50,DENV-2 [1]; [8],7.9 µM
same,EC50,ZIKV [2],7.9 µM
same,CC50,BHK-21 cells,39.3 µM
same,Times less toxic than narciclasine in BHK-21 cells,BHK-21 cells; ratio versus narciclasine,430 times
same,CC50,Vero cells,51.8 µM
same,Times less toxic than narciclasine in Vero cells,Vero cells; ratio versus narciclasine,430 times
same,DENV-2 Virucidal activity,DENV-2 [3],No
same,ZIKV Virucidal activity,ZIKV [4],No
O=C1N[C@@H]2C(=C[C@H](O)[C@@H](O)[C@H]2O)c2cc3c(c(O)c21)OCO3 [Narciclasine],EC50,DENV-2 [1]; [8],0.02 µM
same,"Active concentration against DENV-2, times less than lycorine",DENV-2 [1]; ratio versus lycorine,25 times
same,"Active concentration against DENV-2, times less than pretazettine",DENV-2 [1]; ratio versus pretazettine,40 times
same,EC50,ZIKV [2],0.02 µM
same,"Active concentration against ZIKV, times less than lycorine",ZIKV [2]; ratio versus lycorine,45 times
same,"Active concentration against ZIKV, times less than pretazettine",ZIKV [2]; ratio versus pretazettine,95 times
same,DENV-2 Virucidal activity,DENV-2 [3],No
same,ZIKV Virucidal activity,ZIKV [4],No
CO[C@@H]1C=C[C@@]23c4cc5c(cc4C(O)O[C@H]2CN(C)[C@H]3C1)OCO5 (stereo partly drawn) [Pretazettine],EC50,DENV-2 [1]; [7],0.8 µM
same,EC50,ZIKV [2]; Zika virus,1.9 µM
same,CC50,[5]; BHK-21 cell monolayers,5.4 µM
same,CC50,[6]; Vero cell monolayers,7.2 µM
same,DENV-2 Virucidal activity,DENV-2 [3],No
same,ZIKV Virucidal activity,ZIKV [4],No
C[C@@H]1O[C@@H](OC[C@H]2O[C@@H](Oc3c(-c4ccc(O)c(O)c4)oc4cc(O)cc(O)c4c3=O)[C@H](O)[C@@H](O)[C@@H]2O)[C@H](O)[C@H](O)[C@H]1O [Rutine],DENV-2 EC50 (µM),"DENV-2 [1]; compounds, BHK-21 cells, MTT",no antiviral activity; also recorded: Inactive
same,ZIKV EC50 (µM),ZIKV [2],no antiviral activity; also recorded: Inactive
same,CC50,BHK-21 cells,> 300 µM
same,CC50,Vero cells,> 300 µM
same,DENV-2 Virucidal activity,DENV-2 [3],No
